Consider two compounds from ChEMBL document CHEMBL1151315, “Baicalein, an alpha-glucosidase inhibitor from Scutellaria baicalensis” (J Nat Prod, 1998).

Active and inactive are the calls of the source. The rule behind the calls is not given here.

Assay [1] deals with Sucrase-isomaltase, intestinal (Rattus norvegicus) (UniProt P23739). Particulars: Caco-2, 21 uM.
Description: Inhibition of rat intestinal sucrase expressed in human Caco-2 cells at 21 uM
For assay [2], the target named is T1, Sucrase-isomaltase, intestinal (Homo sapiens, UniProt P14410). In words: Inhibition of human intestinal sucrase in human Caco-2 cell membrane at 25 uM.
Target sequence in this assay (P14410 2-1007 limits assumed): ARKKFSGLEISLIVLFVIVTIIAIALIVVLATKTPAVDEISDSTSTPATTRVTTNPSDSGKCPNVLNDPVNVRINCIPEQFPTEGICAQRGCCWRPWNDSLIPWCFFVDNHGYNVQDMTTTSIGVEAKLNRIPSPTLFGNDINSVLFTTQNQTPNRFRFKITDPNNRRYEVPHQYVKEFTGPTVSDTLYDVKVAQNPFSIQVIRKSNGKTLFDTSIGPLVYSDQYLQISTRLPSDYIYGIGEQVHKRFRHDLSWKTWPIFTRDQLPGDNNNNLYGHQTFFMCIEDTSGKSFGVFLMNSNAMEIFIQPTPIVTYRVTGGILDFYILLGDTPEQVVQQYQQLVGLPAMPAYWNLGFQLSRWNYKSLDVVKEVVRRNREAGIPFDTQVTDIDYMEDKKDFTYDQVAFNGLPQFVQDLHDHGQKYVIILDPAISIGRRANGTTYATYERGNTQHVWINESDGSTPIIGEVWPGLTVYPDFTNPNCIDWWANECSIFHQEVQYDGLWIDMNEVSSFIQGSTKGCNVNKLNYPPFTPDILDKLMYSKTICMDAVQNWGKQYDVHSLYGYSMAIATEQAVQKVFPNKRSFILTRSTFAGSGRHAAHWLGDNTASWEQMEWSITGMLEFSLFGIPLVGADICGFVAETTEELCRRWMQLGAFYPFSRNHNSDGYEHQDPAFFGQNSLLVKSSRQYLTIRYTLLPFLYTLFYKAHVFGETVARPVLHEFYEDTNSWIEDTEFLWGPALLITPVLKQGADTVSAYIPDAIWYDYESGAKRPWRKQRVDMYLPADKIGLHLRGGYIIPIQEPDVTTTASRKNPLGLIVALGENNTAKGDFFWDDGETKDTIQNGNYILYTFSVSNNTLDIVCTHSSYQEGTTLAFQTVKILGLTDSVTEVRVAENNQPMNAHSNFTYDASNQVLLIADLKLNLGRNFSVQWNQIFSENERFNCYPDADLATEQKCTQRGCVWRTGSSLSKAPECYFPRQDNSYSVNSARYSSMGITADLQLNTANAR
Target sequence in this assay (P14410 1008-1827 limits assumed): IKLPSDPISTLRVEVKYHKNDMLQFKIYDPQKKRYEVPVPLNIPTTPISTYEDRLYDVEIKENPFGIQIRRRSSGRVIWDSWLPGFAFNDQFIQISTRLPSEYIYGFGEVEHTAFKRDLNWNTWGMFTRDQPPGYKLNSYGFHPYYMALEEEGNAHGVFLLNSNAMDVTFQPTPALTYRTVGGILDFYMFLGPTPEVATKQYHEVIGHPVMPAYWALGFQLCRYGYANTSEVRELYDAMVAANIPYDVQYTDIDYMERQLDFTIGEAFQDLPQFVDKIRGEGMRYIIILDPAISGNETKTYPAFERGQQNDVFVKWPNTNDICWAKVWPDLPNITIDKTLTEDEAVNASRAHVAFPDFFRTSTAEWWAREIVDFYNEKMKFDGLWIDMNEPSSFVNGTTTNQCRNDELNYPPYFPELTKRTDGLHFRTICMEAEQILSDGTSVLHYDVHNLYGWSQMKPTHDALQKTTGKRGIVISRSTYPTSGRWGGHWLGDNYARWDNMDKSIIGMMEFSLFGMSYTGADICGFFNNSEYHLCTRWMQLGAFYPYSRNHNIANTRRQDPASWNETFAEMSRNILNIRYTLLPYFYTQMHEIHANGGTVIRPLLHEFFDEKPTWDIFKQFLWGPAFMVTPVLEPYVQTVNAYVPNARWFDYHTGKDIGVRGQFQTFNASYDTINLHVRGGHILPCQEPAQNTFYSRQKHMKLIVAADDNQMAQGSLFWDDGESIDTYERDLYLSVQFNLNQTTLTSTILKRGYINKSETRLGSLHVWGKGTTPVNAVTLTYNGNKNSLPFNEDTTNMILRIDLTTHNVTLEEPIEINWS
Assay [3] addresses Sucrase-isomaltase, intestinal (Rattus norvegicus, UniProt P23739). Nature of the assay: Inhibition of rat intestinal sucrase.
In assay [4] the target is T1, Sucrase-isomaltase, intestinal. Nature of the assay: Inhibition of human intestinal sucrase in human Caco-2 cell membrane. Format: cell-based.
Target sequence in this assay (P14410 2-1007 limits assumed): as the sequence (P14410 2-1007 limits assumed) above
Target sequence in this assay (P14410 1008-1827 limits assumed): as the sequence (P14410 1008-1827 limits assumed) above
Assay [5] has the same target. In words: Inhibition of human intestinal sucrase.
Target sequence in this assay (P14410 whole entry, looked up): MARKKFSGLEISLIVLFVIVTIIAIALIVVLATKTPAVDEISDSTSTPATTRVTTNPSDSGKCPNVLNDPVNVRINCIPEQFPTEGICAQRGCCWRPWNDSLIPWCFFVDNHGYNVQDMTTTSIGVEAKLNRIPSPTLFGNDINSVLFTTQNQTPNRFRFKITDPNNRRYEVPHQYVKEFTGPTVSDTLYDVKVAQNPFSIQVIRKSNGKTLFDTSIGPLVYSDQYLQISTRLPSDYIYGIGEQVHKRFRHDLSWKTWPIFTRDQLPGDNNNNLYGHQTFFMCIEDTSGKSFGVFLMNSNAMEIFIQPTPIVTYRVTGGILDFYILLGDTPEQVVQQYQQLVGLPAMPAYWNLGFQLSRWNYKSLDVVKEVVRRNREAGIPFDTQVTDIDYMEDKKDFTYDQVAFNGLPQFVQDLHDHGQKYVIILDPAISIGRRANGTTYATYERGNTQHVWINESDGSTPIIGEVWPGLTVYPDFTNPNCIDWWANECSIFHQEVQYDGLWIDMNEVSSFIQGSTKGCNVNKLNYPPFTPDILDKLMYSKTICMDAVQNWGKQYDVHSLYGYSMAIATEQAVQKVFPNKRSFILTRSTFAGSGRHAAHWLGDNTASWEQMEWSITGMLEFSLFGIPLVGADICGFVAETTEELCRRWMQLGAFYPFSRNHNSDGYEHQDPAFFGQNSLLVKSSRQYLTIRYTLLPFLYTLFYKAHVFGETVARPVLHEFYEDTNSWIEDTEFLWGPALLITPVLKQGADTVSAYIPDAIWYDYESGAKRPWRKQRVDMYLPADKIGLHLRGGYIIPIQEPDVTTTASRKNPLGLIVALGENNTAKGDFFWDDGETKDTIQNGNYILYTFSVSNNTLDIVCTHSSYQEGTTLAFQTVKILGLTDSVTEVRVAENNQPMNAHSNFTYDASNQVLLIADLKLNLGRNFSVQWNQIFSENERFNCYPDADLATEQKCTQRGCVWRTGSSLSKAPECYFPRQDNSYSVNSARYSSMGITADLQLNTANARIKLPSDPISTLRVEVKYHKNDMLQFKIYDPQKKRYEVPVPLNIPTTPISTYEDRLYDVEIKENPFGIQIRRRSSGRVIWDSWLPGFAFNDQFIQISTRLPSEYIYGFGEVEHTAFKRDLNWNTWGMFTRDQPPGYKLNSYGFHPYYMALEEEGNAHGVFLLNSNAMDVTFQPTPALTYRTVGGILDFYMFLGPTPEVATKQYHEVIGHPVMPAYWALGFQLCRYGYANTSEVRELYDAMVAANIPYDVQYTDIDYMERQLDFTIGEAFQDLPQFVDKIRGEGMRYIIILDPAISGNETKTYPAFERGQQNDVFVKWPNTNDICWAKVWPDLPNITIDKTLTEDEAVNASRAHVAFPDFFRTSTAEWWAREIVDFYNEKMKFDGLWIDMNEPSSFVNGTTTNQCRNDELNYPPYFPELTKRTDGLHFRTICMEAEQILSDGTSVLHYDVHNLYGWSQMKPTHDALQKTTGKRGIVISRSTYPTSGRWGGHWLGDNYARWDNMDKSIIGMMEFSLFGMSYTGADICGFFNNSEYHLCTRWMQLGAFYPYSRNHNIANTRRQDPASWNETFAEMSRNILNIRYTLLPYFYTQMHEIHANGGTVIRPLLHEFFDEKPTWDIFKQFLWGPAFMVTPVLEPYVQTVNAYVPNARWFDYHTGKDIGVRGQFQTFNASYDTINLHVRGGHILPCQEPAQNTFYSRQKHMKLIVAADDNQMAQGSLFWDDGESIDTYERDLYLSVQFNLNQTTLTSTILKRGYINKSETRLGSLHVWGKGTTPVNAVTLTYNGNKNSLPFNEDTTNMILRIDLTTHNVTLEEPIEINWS

One may read the inhibition as the relative decrease from the control value, in per cent. Low readings indicate a weak effect, high ones a strong effect. Turning to `OC[C@H]1NC[C@H](O)[C@@H](O)[C@@H]1O`, the inhibition in assay [1] is 100%; in assay [2], 95%.
In general, IC50 refers to the concentration that inhibits the measured activity by half. Regarding `O=c1cc(-c2ccccc2)oc2cc(O)c(O)c(O)c12` [BAICALEIN], the IC50 was found to be 260 µM in assay [3] and 35 µM in assay [4]. For the same compound, the outcome in assay [5] was Active.
